Molecular target: T1, GST-RagD (Homo sapiens, UniProt Q9NQL2)
T1 construct: gene RRAGD; GST fusion from pET24d(+) in E. coli Rosetta (DE3), glutathione Sepharose; RagD alone without RagA/B; GST tag kept
Test: UV crosslinking of alpha-32P-GTP, SDS-PAGE, autoradiography
Assay type: binding
Details: labelled compound; 1 nM alpha-32P-GTP; 31.25 nM to 2 uM protein; 2 mM MgCl2; 50 mM HEPES pH 7.5; 100 mM potassium acetate; 4 h at 4 C

T1 sequence (Q9NQL2 whole entry, the tested form may be a part): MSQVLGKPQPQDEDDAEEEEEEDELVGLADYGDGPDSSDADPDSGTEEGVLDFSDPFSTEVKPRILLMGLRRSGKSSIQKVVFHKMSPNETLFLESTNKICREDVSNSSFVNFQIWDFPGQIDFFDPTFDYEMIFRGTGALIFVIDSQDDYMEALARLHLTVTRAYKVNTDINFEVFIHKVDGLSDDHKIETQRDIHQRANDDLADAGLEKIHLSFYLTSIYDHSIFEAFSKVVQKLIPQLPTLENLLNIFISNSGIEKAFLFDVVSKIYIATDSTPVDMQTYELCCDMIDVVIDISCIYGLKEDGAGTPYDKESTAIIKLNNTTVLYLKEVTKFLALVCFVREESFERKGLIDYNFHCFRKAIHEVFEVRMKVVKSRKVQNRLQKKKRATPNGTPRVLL

Nc1nc2c(ncn2[C@@H]2O[C@H](COP(=O)(O)OP(=O)(O)OP(=O)(O)O)[C@@H](O)[C@H]2O)c(=O)[nH]1 [GTP]
UV crosslinking of alpha-32P-GTP, SDS-PAGE, autoradiography: WT RagD bound GTP in a concentration-dependent manner

Reference: paper PMC10185561, “RagD auto-activating mutations impair MiT/TFE activity in kidney tubulopathy and cardiomyopathy syndrome” (Nature Communications, 2023)
